Patent US20100311714A1, “1H-IMIDAZO[4,5-c]QUINOLINONE COMPOUNDS” (priority 2009, published 2010)
Like-named read-outs stand apart in the source and are kept apart here.

Tests used:
[1] = biological target: T1, PI3K gamma (Homo sapiens, UniProt P48736); experiment: PI3K gamma kinase assay (Kinase-Glo luminescence); assay type: biochemical; settings: read-out: PI3Kgamma/IC50
T1 construct: His tag (C); made in house; host or cells: construct from Roger Williams lab (pVL1393); baculovirus BV950; Tn5 (Trichoplusia ni) or TiniPro insect cells
T1 sequence (P48736 144-1102 limits assumed): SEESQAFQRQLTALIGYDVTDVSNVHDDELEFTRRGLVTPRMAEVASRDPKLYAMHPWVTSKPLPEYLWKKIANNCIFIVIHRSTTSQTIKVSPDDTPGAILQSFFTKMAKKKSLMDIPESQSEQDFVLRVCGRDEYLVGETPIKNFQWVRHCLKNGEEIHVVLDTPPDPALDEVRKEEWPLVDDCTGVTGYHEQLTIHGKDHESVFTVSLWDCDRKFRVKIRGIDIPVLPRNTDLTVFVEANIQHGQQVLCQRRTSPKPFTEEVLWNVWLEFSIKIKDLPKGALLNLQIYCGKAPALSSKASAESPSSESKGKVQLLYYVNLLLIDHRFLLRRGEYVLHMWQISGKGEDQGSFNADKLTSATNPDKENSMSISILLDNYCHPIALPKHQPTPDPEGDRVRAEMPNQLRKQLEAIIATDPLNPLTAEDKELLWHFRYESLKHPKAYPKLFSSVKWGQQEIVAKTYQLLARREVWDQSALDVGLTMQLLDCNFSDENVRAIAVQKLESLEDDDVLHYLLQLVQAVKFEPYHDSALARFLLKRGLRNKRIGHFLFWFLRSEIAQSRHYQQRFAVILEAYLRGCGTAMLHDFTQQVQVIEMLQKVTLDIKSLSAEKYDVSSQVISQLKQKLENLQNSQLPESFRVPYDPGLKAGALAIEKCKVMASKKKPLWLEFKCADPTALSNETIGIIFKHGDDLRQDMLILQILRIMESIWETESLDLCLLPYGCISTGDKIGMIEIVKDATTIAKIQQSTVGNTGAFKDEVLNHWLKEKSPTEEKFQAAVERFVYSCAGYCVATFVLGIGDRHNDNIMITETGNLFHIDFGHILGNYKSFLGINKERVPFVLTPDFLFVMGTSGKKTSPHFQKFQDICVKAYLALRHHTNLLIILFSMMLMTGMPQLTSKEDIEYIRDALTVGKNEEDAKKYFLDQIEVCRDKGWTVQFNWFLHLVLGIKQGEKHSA
Protocol: In a more preferred assay, the kinase reaction is performed in a final volume of 10 μL per well of a low volume non binding CORNING, 384 well black plate (Cat. No. #3676). The final concentrations of ATP and phosphatidyl inositol (PI) in the assay are 1 μM and 10 μg/mL respectively. The reaction is started by the addition of ATP.
The components of the assay are added per well as follows:
50 nL test compounds in 90% DMSO per well, in columns 1-20, 8 concentrations (⅓ and 1/3.33 serial dilution step) in single. • Low control: […] of 90% DMSO in half the wells of columns 23-24 (0.45% in final). • High control: 50 nL of reference compound (e.g. compound of Example 7 in WO 2006/122806) in the other half of columns 23-24 (2.5 μM in final). • Standard: 50 nL of reference compound as just mentioned diluted as the test compounds in columns 21-22 • 20 mL ‘buffer’ are prepared per assay: • 200 μL of 1M TRIS HCl pH7.5 (10 mM in final) • 60 μL of 1M MgCl2 (3 mM in final) • 500 μL of 2M NaCl (50 mM in final) • 100 μL of 10% CHAPS (0.05% in final) • 200 μL of 100 mM DTT (1 mM in final) • 18.94 mL of nanopure water • 10 mL ‘PI’ are prepared per assay: • 200 μL of 1 mg/ml L-alpha-Phosphatidylinositol (Liver Bovine, Avanti Polar Lipids Cat. No. 840042C MW=909.12) prepared in 3% OctylGlucoside (10 μg/ml in final) • 9.8 mL of ‘buffer’ • 10 mL ‘ATP’ are prepared per assay: • 6.7 μL of 3 mM stock of ATP giving a final concentration of 1 μM per well • 10 mL of ‘buffer’ • 2.5 mL of each PI3K construct are prepared per assay in ‘PI’ with the following final concentration: • 10 nM PI3K alfa EMV B1075 • 25 nM beta EMV BV949 • 10 nM delta EMV BV1060 • 150 nM gamma EMV BV950 • 5 μL of ‘PI/PI3K’ are added per well. • 5 μl ‘ATP’ are added per well to start the reaction. • The plates are then incubated at room temperature for 60 minutes (alfa, beta, delta) or 120 minutes (gamma). • The reaction is terminated by the addition of 10 μL Kinase-Glo (Promega Cat. No. #6714). • The assay plates are read after 10 minutes in Synergy 2 reader (BioTek, Vermont USA) with an integration time of 100 milliseconds and sensitivity set to 191. • Output: The High control is around 60′000 counts and the Low control is 30′000 or lower • This luminescence assay gives a useful Z′ ratio between 0.4 and 0.7
PI3K gamma is purified in two chromatographic steps: immobilized metal affinity chromatography (IMAC) on a Ni Sepharose resin (GE Healthcare) and gel filtration (GFC) utilizing a Superdex 200 26/60 column (GE Healthcare). All buffers are chilled to 4° C. and lysis is performed chilled on ice. Column fractionation is performed rapidly at room temperature. Typically frozen insect cells are lysed in a hypertonic lysis buffer and applied to a prepared IMAC column. The resin is washed with 3-5 column volumes of lysis buffer, followed by 3-5 column volumes wash buffer containing 45 mM imidazole, and the target protein is then eluted with a buffer containing 250 mM imidazole. Fractions are analyzed by Coomassie stained SDS-PAGE gels, and fractions containing target protein are pooled and applied to a prepared GFC column. Fractions from the GFC column are analyzed by Coomassie stained SDS-PAGE gels, and fractions containing target protein are pooled. The final pool is dialyzed into a storage buffer containing 50% glycerol and stored at −20° C. The final pool is assayed for activity in the phosphoinostitol kinase assay.
IC50 is determined by a four parameter curve fitting routine that comes along with “excel fit”. A 4 Parameter logistic equation is used to calculate IC50 values (IDBS XLfit) of the percentage inhibition of each compound at 8 concentrations (usually 10, 3.0, 1.0, 0.3, 0.1, 0.030, 0.010 and 0.003 μM). Alternatively, IC50 values are calculated using idbsXLfit model 204, which is a 4 parameter logistic model.

[2] = biological target: T2, PI3K alfa (Homo sapiens, UniProt P42336); experiment: PI3K alpha kinase assay (Kinase-Glo luminescence); assay type: biochemical
T2 construct: His tag (C); made in house; host or cells: baculovirus BV1075; Tn5 (Trichoplusia ni) or TiniPro insect cells
T2 sequence (P42336 with tags, fused parts or gaps limits assumed): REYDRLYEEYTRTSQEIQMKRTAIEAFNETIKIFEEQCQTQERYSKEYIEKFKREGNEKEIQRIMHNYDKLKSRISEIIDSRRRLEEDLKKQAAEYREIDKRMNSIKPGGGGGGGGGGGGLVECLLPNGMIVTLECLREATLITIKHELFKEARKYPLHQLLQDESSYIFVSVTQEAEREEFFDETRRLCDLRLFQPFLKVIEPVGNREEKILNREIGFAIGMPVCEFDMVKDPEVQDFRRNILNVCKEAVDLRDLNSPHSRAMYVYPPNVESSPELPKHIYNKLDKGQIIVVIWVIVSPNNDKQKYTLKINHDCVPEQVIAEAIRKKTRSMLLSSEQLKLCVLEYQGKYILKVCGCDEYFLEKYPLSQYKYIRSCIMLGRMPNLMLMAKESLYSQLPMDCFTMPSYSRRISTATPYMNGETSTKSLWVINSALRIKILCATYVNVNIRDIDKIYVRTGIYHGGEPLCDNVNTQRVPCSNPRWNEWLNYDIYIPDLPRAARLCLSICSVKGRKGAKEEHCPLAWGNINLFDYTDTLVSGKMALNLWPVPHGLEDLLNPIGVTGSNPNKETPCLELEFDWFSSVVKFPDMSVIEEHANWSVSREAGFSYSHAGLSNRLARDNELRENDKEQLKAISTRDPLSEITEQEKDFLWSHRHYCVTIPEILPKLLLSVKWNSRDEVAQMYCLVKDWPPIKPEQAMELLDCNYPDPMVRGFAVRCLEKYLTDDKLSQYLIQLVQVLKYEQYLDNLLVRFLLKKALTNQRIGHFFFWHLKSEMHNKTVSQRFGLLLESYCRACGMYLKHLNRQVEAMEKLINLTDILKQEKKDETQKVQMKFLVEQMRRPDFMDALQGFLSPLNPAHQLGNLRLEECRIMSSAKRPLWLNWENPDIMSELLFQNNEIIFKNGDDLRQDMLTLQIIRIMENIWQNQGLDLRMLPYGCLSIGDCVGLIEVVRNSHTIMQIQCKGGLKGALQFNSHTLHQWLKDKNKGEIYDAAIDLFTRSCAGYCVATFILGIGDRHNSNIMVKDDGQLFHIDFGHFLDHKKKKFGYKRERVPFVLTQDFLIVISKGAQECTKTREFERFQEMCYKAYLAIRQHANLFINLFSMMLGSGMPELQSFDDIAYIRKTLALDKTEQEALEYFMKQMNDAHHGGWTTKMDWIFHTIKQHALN
Summary of the method: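 IC50 values come from a four-parameter logistic fit of percent inhibition at eight concentrations, typically 10 to 0.003 μM. Recombinant PI3Kα at 10 nM turned over 1 μM ATP with 10 μg/mL PI for 60 min at room temperature, and residual ATP was measured by Kinase-Glo.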

Structure (SMILES) | IC50 [1] [µM] | IC50 ([2]; read-out: PI3Kalfa/IC50) [µM] | IC50 ([2]; read-out: EPK_PI3Kalfa/IC50) [µM]
COc1ccc(-c2ccc3ncc4c(c3c2)n(-c2cccnc2)c(=O)n4C)cc1OC [Example 5.2, 8-(3,4-Dimethoxy-phenyl)-3-methyl-1-pyridin-3-yl-1,3-dihydro-imidazo[4,5-c]quinolin-2-one] | 0.365 | 0.029 | 
COc1ccc(-c2ccc3ncc4c(c3c2)n(-c2cccnc2)c(=O)n4C)cn1 [Example 5.4, 8-(6-Methoxy-pyridin-3-yl)-3-methyl-1-pyridin-3-yl-1,3-dihydro-imidazo[4,5-c]quinolin-2-one] | 0.377 | 0.019 | 
Cc1cccnc1-n1c(=O)n(C)c2cnc3ccc(-c4cnc5ccccc5c4)cc3c21 [Example 3.8, 3-Methyl-1-(3-methyl-pyridin-2-yl)-8-quinolin-3-yl-1,3-dihydro-imidazo[4,5-c]quinolin-2-one] | 0.404 | 0.07 | 
COc1ccc(-c2ccc3ncc4c(c3c2)n(-c2ncccc2C)c(=O)n4C)cn1 [Example 3.13, 8-(6-Methoxy-pyridin-3-yl)-3-methyl-1-(3-methyl-pyridin-2-yl)-1,3-dihydro-imidazo[4,5-c]quinolin-2-one] | 0.517 | 0.09 | 
CCOc1ccc(-c2ccc3ncc4c(c3c2)n(-c2cccnc2C)c(=O)n4C)cn1 [Example 2.1, 8-(6-Ethoxy-pyridin-3-yl)-3-methyl-1-(2-methyl-pyridin-3-yl)-1,3-dihydro-imidazo[4,5-c]quinolin-2-one] | 0.587 | 0.056 | 
CNc1ccc(-c2ccc3ncc4c(c3c2)n(-c2cccnc2OC)c(=O)n4C)cn1 [Example 1.4, 1-(2-Methoxy-pyridin-3-yl)-3-methyl-8-(6-methylamino-pyridin-3-yl)-1,3-dihydro-imidazo[4,5-c]quinolin-2-one] | 0.227 | 0.048 | 
CNc1ncc(-c2ccc3ncc4c(c3c2)n(-c2cccnc2C)c(=O)n4C)cn1 [Example 2.2, 3-Methyl-8-(2-methylamino-pyrimidin-5-yl)-1-(2-methyl-pyridin-3-yl)-1,3-dihydro-imidazo[4,5-c]quinolin-2-one] | 0.331 | 0.026 | 
Cc1ncccc1-n1c(=O)n(C)c2cnc3ccc(-c4cnc5c(ccn5C)c4)cc3c21 [Example 2.14, 3-Methyl-1-(2-methyl-pyridin-3-yl)-8-(1-methyl-1H-pyrrolo[2,3-b]pyridin-5-yl)-1,3-dihydro-imidazo[4,5-c]quinolin-2-one] |  | 0.034 | 
COCCN(C)c1ccc(-n2c(=O)n(C)c3cnc4ccc(-c5cnc(N(C)C)nc5)cc4c32)c(C)n1 [Example 15.5, 8-(2-Dimethylamino-pyrimidin-5-yl)-1-{6-[(2-methoxy-ethyl)-methyl-amino]-2-methyl-pyridin-3-yl}-3-methyl-1,3-dihydro-imidazo[4,5-c]quinolin-2-one] |  |  | 0.031
CCOc1ccc(-c2ccc3ncc4c(c3c2)n(-c2ccc(N(C)C)nc2C)c(=O)n4C)cn1 [Example 19.3, 1-(6-Dimethylamino-2-methyl-pyridin-3-yl)-8-(6-ethoxy-pyridin-3-yl)-3-methyl-1,3-dihydro-imidazo[4,5-c]quinolin-2-one] |  |  | 0.055
CCNc1cc(-c2ccc3ncc4c(c3c2)n(-c2ccc(C)nc2C)c(=O)n4C)cnc1C [Example 14.6, 1-(2,6-Dimethyl-pyridin-3-yl)-8-(5-ethylamino-6-methyl-pyridin-3-yl)-3-methyl-1,3-dihydro-imidazo[4,5-c]quinolin-2-one] |  |  | 0.019
CCOc1ccc(-c2ccc3ncc4c(c3c2)n(-c2ccc(N(C)CCOC)nc2C)c(=O)n4C)cn1 [Example 15.3, 8-(6-Ethoxy-pyridin-3-yl)-1-{6-[(2-methoxy-ethyl)-methyl-amino]-2-methyl-pyridin-3-yl}-3-methyl-1,3-dihydro-imidazo[4,5-c]quinolin-2-one] |  |  | 0.103
CCN(C)c1ccc(-n2c(=O)n(C)c3cnc4ccc(-c5ccc(NC)nc5)cc4c32)c(C)n1 [Example 12.1, 1-[6-(Ethyl-methyl-amino)-2-methyl-pyridin-3-yl]-3-methyl-8-(6-methylamino-pyridin-3-yl)-1,3-dihydro-imidazo[4,5-c]quinolin-2-one] |  |  | 0.036

The next lines start with the values.

IC50 [1] [µM] | IC50 ([2]; read-out: PI3Kalfa/IC50) [µM] | IC50 ([2]; read-out: EPK_PI3Kalfa/IC50) [µM] | Structure (SMILES)
0.131 | 0.01 |  | COc1ncccc1-n1c(=O)n(C)c2cnc3ccc(-c4cnc(N)c(C(F)(F)F)c4)cc3c21 [Example 1.3, 8-(6-Amino-5-trifluoromethyl-pyridin-3-yl)-1-(2-methoxy-pyridin-3-yl)-3-methyl-1,3-dihydro-imidazo[4,5-c]quinolin-2-one]
0.211 | 0.04 |  | CCOc1ccc(-c2ccc3ncc4c(c3c2)n(-c2cccnc2OC)c(=O)n4C)cn1 [Example 1.5, 8-(6-Ethoxy-pyridin-3-yl)-1-(2-methoxy-pyridin-3-yl)-3-methyl-1,3-dihydro-imidazo[4,5-c]quinolin-2-one]
0.237 | 0.023 |  | COc1ccc(-c2ccc3ncc4c(c3c2)n(-c2cccnc2OC)c(=O)n4C)cn1 [Example 1.1, 1-(2-Methoxy-pyridin-3-yl)-8-(6-methoxy-pyridin-3-yl)-3-methyl-1,3-dihydro-imidazo[4,5-c]quinolin-2-one]
 | 0.011 |  | COc1ccc(-n2c(=O)n(C)c3cnc4ccc(-c5cnc(N)c(C(F)(F)F)c5)cc4c32)c(OC)n1 [Example 8.1, 8-(6-Amino-5-trifluoromethyl-pyridin-3-yl)-1-(2,6-dimethoxy-pyridin-3-yl)-3-methyl-1,3-dihydro-imidazo[4,5-c]quinolin-2-one]
 |  | 0.011 | CNc1ncc(-c2ccc3ncc4c(c3c2)n(-c2ccc(F)nc2C)c(=O)n4C)cc1C(F)(F)F [Example 7.13, 1-(6-Fluoro-2-methyl-pyridin-3-yl)-3-methyl-8-(6-methylamino-5-trifluoromethyl-pyridin-3-yl)-1,3-dihydro-imidazo[4,5-c]quinolin-2-one]
 |  | 0.009 | COc1cc(-c2ccc3ncc4c(c3c2)n(-c2ccc(N(C)C)nc2C)c(=O)n4C)cnc1CO [Example 19.4, 1-(6-Dimethylamino-2-methyl-pyridin-3-yl)-8-(6-hydroxymethyl-5-methoxy-pyridin-3-yl)-3-methyl-1,3-dihydro-imidazo[4,5-c]quinolin-2-one]
 |  | 0.005 | Cc1ccc(-n2c(=O)n(C)c3cnc4ccc(-c5cnc(N)c(C(F)(F)F)c5)cc4c32)c(C)n1 [Example 14.5, 8-(6-Amino-5-trifluoromethyl-pyridin-3-yl)-1-(2,6-dimethyl-pyridin-3-yl)-3-methyl-1,3-dihydro-imidazo[4,5-c]quinolin-2-one]
 |  | 0.04 | CCNc1cc(-c2ccc3ncc4c(c3c2)n(-c2ccc(OC)nc2Cl)c(=O)n4C)cnc1C [Example 18.1, 1-(2-Chloro-6-methoxy-pyridin-3-yl)-8-(5-ethylamino-6-methyl-pyridin-3-yl)-3-methyl-1,3-dihydro-imidazo[4,5-c]quinolin-2-one]
